In the test the target is T1, Ribonuclease pancreatic (Homo sapiens, UniProt P07998).
T1 sequence (P07998 whole entry): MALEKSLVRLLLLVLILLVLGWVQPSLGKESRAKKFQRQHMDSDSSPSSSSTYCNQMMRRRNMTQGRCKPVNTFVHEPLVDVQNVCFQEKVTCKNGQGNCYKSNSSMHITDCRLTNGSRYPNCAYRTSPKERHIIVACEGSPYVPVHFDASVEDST
Description: Inhibition of ribonucleolytic activity of RNase A by agarose gel based assay.

In general, Ki refers to a measure of affinity in units of concentration, obtained from inhibition or displacement. Low values mean higher affinity, high ones lower affinity. For `O=C(O)C1CCN([C@H]2[C@H](O)[C@H](n3ccc(=O)[nH]c3=O)O[C@@H]2CO)CC1`, the Ki was determined as 103 µM.
As to `CCOC(=O)C1CCN([C@H]2[C@H](O)[C@H](n3ccc(=O)[nH]c3=O)O[C@@H]2CO)CC1`, the Ki turned out to be 120 µM.

The values above are taken from ChEMBL document CHEMBL1152228, “Using proton nuclear magnetic resonance to study the mode of ribonuclease A inhibition by competitive and noncompetitive inhibitors” (Bioorg Med Chem Lett, 2008).
